Measured values reported in patent US20120071431A1, “Platycodin Radix Extracts, and Their Use in Treating Disease Conditions Associated with Angiogenesis” (priority 2010, published 2012).
Entries after “also recorded” stand apart in the source; their conditions may differ.

Assays:
[1] = tested on: angiogenesis in human fat tissue; test: human fat tissue angiogenesis assay (substance added to the media); type: cell-based
Protocol: The above extracts of platycodin, both PS and PD, were assayed for antiangiogenic activity using the human fat angiogenesis assay of Greenway et al. (2007).
Study 1: An aqueous extract of Platycodi radix saponins at 1% w/v was tested in our human adipose tissue assay. Briefly, subcutaneous adipose tissue was removed from patients undergoing cosmetic surgical procedures. The fat was placed directly into sterile assay media, transported directly to the laboratory from the surgery suite in the sterile container and processed under a laminar flow hood. The tissue was cut into fragments approximately 1 mm thick and 2 mm in diameter. These fragments were placed in 96-well plates containing a 4 μL human thrombin solution (0.05 IU in 4 μL per well) and covered with 100 μL clotting media (3 mg/mL fibrinogen; Sigma Chemical Co., St Louis, Mo., USA), 0.5% ε-amino caproic acid (Sigma Chemical Co.) in angiogenesis media containing 100 U/mL penicillin, 100 U/mL streptomycin sulfate and 2.5 μg/mL amphotericin β in Medium 199 (Gibco BRL, Gaithersburg, Md., USA). The mixture was allowed to clot by incubation in 6% CO2 at 37° C. in a humidified incubator. After the media had gelled overnight, the fat-containing clot was supplemented with 100 μL angiogenesis media containing 20% fetal bovine serum (Gibco BRL). The total volume of each well was 200 μL. There were 30 replicates for the 1% w/v Platycodi radix saponins and the media control. The angiogenesis media were replaced every 48 h and appropriate concentrations of fresh Platycodi radix saponins or media control were added. Wells were evaluated for the angiogenic response as described by Greenway et al. (2007). An observer unbiased to the treatment protocols evaluated the angiogenic response using a semi-quantitative visual rating scale. Briefly, the tissue was viewed under an inverted microscope, visually divided into four quadrants and each quadrant was given a numeric score from 0 to 4 based on the neovessels' length, density, and percentage of the quadrants' circumference involved with the angiogenic response. Numeric results from the four quadrants were summed and expressed as an angiogenic index ranging from 0 (no neovessels apparent in any quadrant) to 16 (highly vascularized in all four quadrants). The extract of Platycodi radix saponins at 1% w/v was tested, followed by Platycodin D, and finally by the Platycodi radix saponins standardized to the Platycodin D content.

pancreatic lipase = molecular target: T1, pancreatic lipase (Homo sapiens, UniProt P16233); details: cited from earlier work
T1 sequence (P16233 17-465): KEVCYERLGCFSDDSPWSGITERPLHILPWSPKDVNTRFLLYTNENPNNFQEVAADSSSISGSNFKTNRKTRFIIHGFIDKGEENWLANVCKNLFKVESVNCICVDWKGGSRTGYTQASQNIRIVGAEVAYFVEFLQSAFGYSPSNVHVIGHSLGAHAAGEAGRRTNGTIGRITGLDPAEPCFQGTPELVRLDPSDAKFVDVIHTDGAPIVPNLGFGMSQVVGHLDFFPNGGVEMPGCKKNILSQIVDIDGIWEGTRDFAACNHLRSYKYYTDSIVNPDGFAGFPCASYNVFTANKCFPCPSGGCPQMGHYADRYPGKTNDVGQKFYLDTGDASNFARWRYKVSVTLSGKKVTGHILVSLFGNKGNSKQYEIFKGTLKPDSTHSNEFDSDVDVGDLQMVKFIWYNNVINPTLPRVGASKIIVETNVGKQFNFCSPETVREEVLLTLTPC

C[C@@H]1O[C@@H](O[C@H]2[C@H](OC(=O)[C@]34CCC(C)(C)C[C@H]3C3=CC[C@@H]5[C@@]6(C)C[C@H](O)[C@H](O[C@@H]7O[C@H](CO)[C@@H](O)[C@H](O)[C@H]7O)C(CO)(CO)[C@@H]6CC[C@@]5(C)[C@]3(C)C[C@H]4O)OC[C@H](O)[C@@H]2O)[C@H](O)[C@H](O)[C@H]1O[C@@H]1OC[C@@H](O)[C@H](O[C@@H]2OC[C@](O)(CO)[C@H]2O)[C@H]1O [PD, platycodin D]
inhibition of angiogenesis (angiogenic index) ([1]; 10^-4 M (concentration of platycodin D) and higher): complete inhibition of angiogenesis | inhibition of angiogenesis ([1]; 10^-5 M, difference not statistically significant): partial inhibition | inhibition of angiogenesis ([1]; concentration not given): inhibited angiogenesis; also recorded: inhibitors of angiogenesis | inhibition of angiogenesis ([1]; concentrations above 10^-4 M): totally inhibited angiogenesis | inhibition of angiogenesis ([1]; concentrations below 10^-4 M): did not inhibit angiogenesis | inhibition of pancreatic lipase (pancreatic lipase): inhibit pancreatic lipase
